# Reference: patent US20040248099A1, “Use of intermediate -conductance potassium channels and modulators for diagnosing and treating diseases having disturbed keratinocyte activity” (priority 2000, published 2004)
# Entries after “also recorded” stand apart in the source; their conditions may differ.
# Tests used:
# HaCaT keratinocytes [1] = assay: Patch-clamp recording of the membrane potential of HaCaT keratinocytes (current clamp; ATP-induced response); type: cell-based, human; conditions: for blockers leading to a comparable depolarization on a plateau during treatment with ATP: other K+ channel blockers tested
# Experimental: In order to identify an ion channel which is substantially involved in the transduction of wound healing-specific signals, HaCaT cells were investigated electrophysiologically. The HaCaT keratinocytes were propagated in DEM containing 10% FCS (Gibco BRL) to which antibiotics (penicillin/streptomycin, 100 U/ml) had been added. […] The patch pipettes were prepared from small borosilicate tubes on a horizontal pulling device (DMZ, Zeitz) using the two-step pulling method. […] The resistance of these patch pipettes was 5-8 GΩ in the bath. After a seal in the GΩ range had been produced (typically 1.5-2 GΩ) the amplifier was switched to current clamp mode. […] The electrophysiological signals were recorded, amplified and digitalized using an Axopatch 200 amplifier in combination with a TL-1 Labmaster Interface and AXOTAPE software (Axon Instruments). The statistical analysis (one-way ANOVA with Bonferri post-test comparison) was carried out using Graphpad prism 2.0. […]
# The inflow of liquid was gravity-dependent and was controlled by means of magnetic valves. Outflow was effected by applying a negative pressure using a vacuum pump. Substances were added, while observing visually, directly into the keratinocytes under investigation using a remotely controlled, magnet-controlled Y tube system (diameter of the efflux tube: 100 μm).
# The electrophysiological recordings were carried out, using perforated patches, on HaCaT cells which had grown into a confluent monolayer.
# HaCaT keratinocytes [2] = assay: Proliferation of subconfluent HaCaT keratinocytes, number of cells per well determined daily; type: cell-based, human; conditions: n=3
# Experimental: In order to investigate the effect of the hIK1 channel inhibitors clotrimazole and charybdotoxin, either 10 μM clotrimazole, 200 nM charybdotoxin (ChTx) or 1 mM 1-EBIO were/was added to cells which were growing subconfluently and the number of cells per well was determined daily.
# HaCaT cells [3] = assay: Keratinocyte differentiation by immunostaining with anti-K10 antibody; type: cell-based, human; conditions: 1-EBIO 1 mM, 3 days
# HaCaT keratinocytes [4] = assay: BrDU incorporation cell proliferation ELISA in HaCaT keratinocytes
# Experimental: The influence of activators of IK1 on proliferation was investigated using 1-EBIO and zolxazolamine (see above). Firstly, the influence of different concentrations of 1-EBIO on the growth rate of HaCaT cells was measured in the presence and in the absence of serum. For this purpose, 1×10^4 HaCaT cells per well were cultured in keratinocyte growth medium (KGM) for 5 days in a 96-well plate, in order to synchronize the cell cycle, with this being followed by a two-day incubation in the presence of different concentrations of 1-EBIO in KGM (see FIGS. 7 and 8) in the absence (FIG. 7) and in the presence (FIG. 8) of serum. […] 1% DMSO in KGM served as the solvent control. Cell proliferation was measured by the incorporation of bromodideoxyuridine (BrDU) while cell division was measured in accordance with the manufacturer's instructions (‘The Cell Proliferation ELISA, BrDU, Roche). The incorporation of BrDU was quantified by determining the absorption at 450 nm. In FIGS. 7 and 8, the absorption (A[450 nm]) is in each case plotted on the Y axis as a measure of the proliferation rate. Greater absorption reflects greater proliferation.
# HaCaT cells [5] = assay: Immunoblotting of the differentiation markers involucrin, keratin 1 and keratin 10; type: cell-based, human; conditions: 1-EBIO 1, 100, 1000 μM, 4 days; dose-dependent
# Experimental: For this, 5×10^5 HaCaT cells per well were grown in medium in a 6-well plate. […] 1% DMSO in medium was used as the solvent control (lane ‘C’). The cells were incubated for 4 days, with the medium being replaced daily. After 4 days, the protein concentration in the cell lysates was determined (BCA Assay, Pierce). Immunoblotting was then used to compare equal quantities of protein from the different lysates with the keratinocyte differentiation markers involucrin (1:500, Sigma) and keratin 1 and 10 (1:250, Progen) (FIG. 6).
molecule,measurement,setting,value
[Ba+2] [Ba^2+],blockers leading to a comparable depolarization on a plateau during treatment with ATP,HaCaT keratinocytes [1],None
"CCn1c(=O)[nH]c2cc(Cl)c(Cl)cc21 [DCEBIO, 5,6-dichloro-1-ethyl-1,3-dihydro-2H-benzimidazol-2-one]","concentration for the same electrophysiological effect as 1-EBIO, times less concentrated",HaCaT keratinocytes [1]; HaCaT cells,300-1000 times
Nc1ncnc2c1ncn2[C@@H]1O[C@H](COP(=O)(O)OP(=O)(O)OP(=O)(O)O)[C@@H](O)[C@H]1O [ATP],reversibility of the hyperpolarization,"HaCaT keratinocytes [1]; 1 μM ATP, n=9",could be reversed rapidly by washing out
same,hyperpolarization,"HaCaT keratinocytes [1]; 10 μM ATP, n=28",30±2 mV
same,change in the membrane potential on perfusion,"HaCaT keratinocytes [1]; ATP 1-1000 μM, transient depolarization followed by long-lasting hyperpolarization",biphasic change in the membrane potential
same,duration of the strong hyperpolarization after addition,HaCaT keratinocytes [1]; ATP concentrations of ≧10 μM,at least 5 min
charybdotoxin (QFTNVSCTTSKECWSVCQRLHNTSRGKCMNKKCRCYS),influence on proliferation,HaCaT keratinocytes [2]; charybdotoxin 200 nM,retarded proliferation; also recorded: growth which was only retarded
same,effect on the established ATP-mediated hyperpolarization,"HaCaT keratinocytes [1]; ChTx 100 nM added after ATP, ATP still present, n=2",complete reversal of the hyperpolarization
same,effect on the ATP-induced electrophysiological response,"HaCaT keratinocytes [1]; ChTx 100 nM prior to ATP, n=4, potential stayed on a depolarized plateau",completely prevented repolarization
same,effect on the ATP-induced electrophysiological response,"HaCaT keratinocytes [1]; ChTx 10-100 nM prior to ATP, n=15",retarded repolarization of the rapid depolarization and prevented hyperpolarization
same,inhibition of the ATP-mediated hyperpolarization,HaCaT keratinocytes [1]; charybdotoxin at various concentrations prior to ATP,dose-dependent inhibition
Clc1ccccc1C(c1ccccc1)(c1ccccc1)n1ccnc1 [clotrimazole],influence on proliferation,HaCaT keratinocytes [2]; clotrimazole 10 μM,complete inhibition
same,influence on proliferation,"HaCaT keratinocytes [2]; clotrimazole 10 μM, listed as Clotrimazole",inhibited proliferation completely
same,"effect on the ATP-induced electrophysiological response, compared with 100 nM ChTx","HaCaT keratinocytes [1]; clotrimazole 1 μM prior to ATP, n=3",The same effect
calphostin C,effect on the ATP-mediated change in voltage,HaCaT keratinocytes [1]; calphostin C 50 nM,no effect
NCCc1c[nH]cn1 [histamine],electrophysiological response compared with ATP,"HaCaT keratinocytes [1]; histamine 100 μM, n=4",practically identical quantitatively and kinetically
"CCn1c(=O)[nH]c2ccccc21 [1-EBIO, 1-ethyl-2-benzimidazolinone]",influence on proliferation,HaCaT keratinocytes [2]; 1-EBIO 1 mM,inhibited proliferation completely; also recorded: complete inhibition
same,proportion of K10-stained (partially differentiated) cells versus control cells,HaCaT cells [3],signficantly reduced
same,cell morphology and apoptosis under activator,HaCaT keratinocytes [4],no sign of apoptosis
same,concentration of strongest inhibition of serum-induced proliferation,HaCaT keratinocytes [4]; 10% FCS,1 mM
same,dose dependence of the inhibition of serum-induced proliferation,HaCaT keratinocytes [4]; 10% FCS,dose-dependent
same,effect on serum-induced proliferation (BrDU incorporation),"HaCaT keratinocytes [4]; 10% FCS, different concentrations of 1-EBIO, two-day incubation",inhibit serum-induced proliferation
same,stimulation of cell proliferation (BrDU incorporation),"HaCaT keratinocytes [4]; absence of serum, different concentrations of 1-EBIO, two-day incubation",not on their own able to stimulate cell proliferation
same,"effect on differentiation (involucrin, K1, K10 protein)",HaCaT cells [5],inhibit differentiation
same,membrane potential (rapid and powerful hyperpolarization to),"HaCaT keratinocytes [1]; 1-EBIO 1 mM, n=3",−83±3 mV
same,"transient depolarization on adding ATP, compared with controlled conditions",HaCaT keratinocytes [1]; ATP 10 μM in the presence of 1-EBIO 1 mM,much stronger
CCCCCCCCCCCCCC(=O)O[C@@H]1[C@@H](C)[C@@]2(O)[C@@H](C=C(CO)C[C@]3(O)C(=O)C(C)=C[C@@H]23)[C@@H]2C(C)(C)[C@]12OC(C)=O [PMA],influence on the effect of ATP,HaCaT keratinocytes [1],no influence
CC[N+](CC)(CC)CC [TEA],blockers leading to a comparable depolarization on a plateau during treatment with ATP,HaCaT keratinocytes [1],None
